The term IC50 denotes the point on the concentration scale where inhibition reaches its midpoint.

SMILES strings stand for the structures. Where a name gives a salt, the structure may show the parent alone.

Here are results for 36 molecules from patent publication US6960614B2, “Oxygenated esters of 4-lodo phenylamino benzhydroxamic acids” (Warner-Lambert Company, priority 2000, dated 2005).

For the experiment, the system named is MEK. In words: Cellular Assay for Measuring MEK Inhibition (inhibition of ERK phosphorylation in C26 cells, Western blot). The experiment is classed as cell-based, murine. The settings on record: for IC50: inhibition of ERK phosphorylation in murine colon 26 (C26) carcinoma cells, determined graphically from dose response curve; for % Inhibition @ 0.1 μM / % Inhibition @ 1 μM: ERK phosphorylation in C26 cells. As to the method: The evaluation of the compounds as MEK inhibitors was performed in an assay that measures their ability to inhibit phosphorylation of MAP kinase […]) in murine colon 26 (C26) carcinoma cells. Since ERK1 and ERK2 represent the only known substrates for MEK, measurement of inhibition of ERK phosphorylation in cells provides direct readout of cellular MEK inhibition by the compounds of the invention. Briefly, the assay involves treating exponentially growing C26 cells with varying concentrations of the test compound (or vehicle control) for […] at 37° C. Cells are then rinsed free of compound/vehicle and lysed in a solution containing 70 mM NaCl, 50 mM glycerol phosphate, 10 mM HEPES, pH 7.4, 1% Triton X-100, 1 mM Na3VO4, 100 μM PMSF, 10 μM leupeptin and 10 μM pepstatin. Supernatants are then subjected to gel electrophoresis and Western blotting using a primary antibody recognizing dually phosphorylated ERK1 and ERK2. To evaluate total MAPK levels, blots were subsequently ‘stripped’ and re-probed with a 1:1 mixture of polyclonal antibodies recognizing unphosphorylated ERK1 and ERK2.

Molecule `O=C(NOCCO)c1ccc(F)cc1Nc1ccc(I)cc1Cl` [Example 4, 2-(2-Chloro-4-iodo-phenylamino)-4-fluoro-N-(2-hydroxy-ethoxy)-benzamide] yielded a half-maximal inhibitory concentration (IC50) of 0.002 µM.

As to `Cc1cc(I)ccc1Nc1cc(F)ccc1C(=O)NOCCO` [Example 5, 4-Fluoro-N-(2-hydroxy-ethoxy)-2-(4-iodo-2-methyl-phenylamino)-benzamide], the 50% inhibitory concentration (IC50) was 0.003 µM.

Turning to `O=C(NOCCO)c1cc(F)c(F)cc1Nc1ccc(I)cc1Cl` [Example 17, 2-(2-Chloro-4-iodo-phenylamino)-4,5-difluoro-N-(2-hydroxy-ethoxy)-benzamide], half-maximal inhibition (IC50) required 0.045 µM.

Molecule `O=C(NOCCCO)c1ccc(F)c(F)c1Nc1ccc(I)cc1F` [Example 32, 3,4-Difluoro-2-(2-fluoro-4-iodo-phenylamino)-N-(3-hydroxy-propoxy)-benzamide] registered an IC50 of 0.0044 µM.

The molecule `O=C(NOCC(O)CO)c1cc(Br)c(F)c(F)c1Nc1ccc(I)cc1F` (stereo not drawn) [Example 40, 5-Bromo-N-(2,3-dihydroxy-propoxy)-3,4-difluoro-2-(2-fluoro-4-iodo-phenylamino)-benzamide] had an IC50 of 0.0014 µM.

The molecule `O=C(NOC[C@H](O)CO)c1cc(Cl)c(F)c(F)c1Nc1ccc(I)cc1F` [Example 53] came in with a half-inhibitory concentration (IC50) of 0.0012 µM.

Take `O=C(NOCCNc1ccccc1)c1ccc(F)c(F)c1Nc1ccc(I)cc1Cl` [Example 77, 2-(2-Chloro-4-iodo-phenylamino)-3,4-difluoro-N-(2-phenylamino-ethoxy)-benzamide]: half-maximal inhibition (IC50) was put at 0.24 µM.

For the molecule `CNCCONC(=O)c1ccc(F)c(F)c1Nc1ccc(I)cc1F` [Example 79, 3,4-Difluoro-2-(2-fluoro-4-iodo-phenylamino)-N-(2-methylamino-ethoxy)-benzamide, hydrochloride salt], the half-inhibitory concentration (IC50) is 0.02 µM.

The molecule `Cc1cc(I)ccc1Nc1c(C(=O)NOCCNCC(F)(F)F)ccc(F)c1F` [Example 80, 3,4-Difluoro-2-(4-iodo-2-methyl-phenylamino)-N-[2-(2,2,2-trifluoro-ethylamino)-ethoxy]-benzamide; hydrochloride] returned an IC50 of 0.49 µM. Against the preceding molecule, the IC50 is about 24-fold higher.

In turn, `CN(OCCO)C(=O)c1ccc(F)cc1Nc1ccc(I)cc1Cl` [Example 81, 2-(2-Chloro-4-iodo-phenylamino)-4-fluoro-N-(2-hydroxy-ethoxy)-N-methyl-benzamide] showed an IC50 of 0.134 µM.

Consider `CC(=O)OCCONC(=O)c1cc(F)c(F)c(F)c1Nc1ccc(I)cc1C` [Example 82, Acetic acid 2-({1-[3,4,5-trifluoro-2-(4-iodo-2-methyl-phenylamino)-phenyl]-methanoyl}-aminooxy)-ethyl ester], for which the IC50 is > 1 µM.

For `O=C(NOCC(O)CO)c1ccc(F)c(F)c1Nc1ccc(I)cc1Cl` (stereo not drawn) [Example 86, 2-(2-Chloro-4-iodo-phenylamino)-N-(2,3-dihydroxy-propoxy)-3,4-difluoro-benzamide], half-maximal inhibition (IC50) was put at 0.019 µM. This counts as double-digit nanomolar.

For the molecule `O=C(NOCC(O)CO)c1cc(F)c(F)c(F)c1Nc1ccc(I)cc1Cl` (stereo not drawn) [Example 87, 2-(2-Chloro-4-iodo-phenylamino)-N-(2,3-dihydroxy-propoxy)-3,4,5-trifluoro-benzamide], the IC50 came to 0.025 µM.

Turning to `O=C(NOCC(O)CO)c1cc(Br)c(F)c(F)c1Nc1ccc(I)cc1Cl` (stereo not drawn) [Example 88, 5-Bromo-2-(2-chloro-4-iodo-phenylamino)-N-(2,3-dihydroxy-propoxy)-3,4-difluoro-benzamide], half-maximal inhibition (IC50) required 0.11 µM.

`Cc1cc(I)ccc1Nc1c(C(=O)NOCC(O)CO)ccc(F)c1F` (stereo not drawn) [Example 89, N-(2,3-Dihydroxy-propoxy)-3,4-difluoro-2-(4-iodo-2-methyl-phenylamino)-benzamide] gave an IC50 of 0.012 µM. This IC50 is about 9.2-fold lower than that of the molecule before.

Consider `Cc1cc(I)ccc1Nc1c(C(=O)NOCC(O)CO)cc(F)c(F)c1F` (stereo not drawn) [Example 90, N-(2,3-Dihydroxy-propoxy)-3,4,5-trifluoro-2-(4-iodo-2-methyl-phenylamino)-benzamide], for which inhibition was half-maximal at 0.04 µM (IC50). Compared with the last molecule, the IC50 is about 3.3-fold higher.

Regarding `Cc1cc(I)ccc1Nc1c(C(=O)NOCC(O)CO)cc(Br)c(F)c1F` (stereo not drawn) [Example 91, 5-Bromo-N-(2,3-dihydroxy-propoxy)-3,4-difluoro-2-(4-iodo-2-methyl-phenylamino)-benzamide], the “% Inhibition @ 0.1 μM” value is given as 89.4% and the “% Inhibition @ 1 μM” value came out at 98.9%.

Consider `O=C(NOCCC(O)CO)c1ccc(F)c(F)c1Nc1ccc(I)cc1Cl` (stereo not drawn) [Example 92, 2-(2-Chloro-4-iodo-phenylamino)-N-(3,4-dihydroxy-butoxy)-3,4-difluoro-benzamide], for which the “% Inhibition @ 0.1 μM” value is on record as 51.8% and the “% Inhibition @ 1 μM” value turned out to be 92.4%.

With `O=C(NOCCC(O)CO)c1cc(F)c(F)c(F)c1Nc1ccc(I)cc1Cl` (stereo not drawn) [Example 93, 2-(2-Chloro-4-iodo-phenylamino)-N-(3,4-dihydroxy-butoxy)-3,4,5-trifluoro-benzamide], the “% Inhibition @ 0.1 μM” value worked out at 4% and the “% Inhibition @ 1 μM” value is reported as 79.1%.

`O=C(NOCCC(O)CO)c1cc(Br)c(F)c(F)c1Nc1ccc(I)cc1Cl` (stereo not drawn) [Example 94, 5-Bromo-2-(2-chloro-4-iodo-phenylamino)-N-(3,4-dihydroxy-butoxy)-3,4-difluoro-benzamide] gave an IC50 of 0.28 µM.

As for `Cc1cc(I)ccc1Nc1c(C(=O)NOCCC(O)CO)ccc(F)c1F` (stereo not drawn) [Example 95, N-(3,4-Dihydroxy-butoxy)-3,4-difluoro-2-(4-iodo-2-methyl-phenylamino)-benzamide], the IC50 was 0.19 µM.

As to `Cc1cc(I)ccc1Nc1c(C(=O)NOCCC(O)CO)cc(F)c(F)c1F` (stereo not drawn) [Example 96, N-(3,4-Dihydroxy-butoxy)-3,4,5-trifluoro-2-(4-iodo-2-methyl-phenylamino)-benzamide], the “% Inhibition @ 0.1 μM” value is reported as 35% and the “% Inhibition @ 1 μM” value was determined as 87.1%.

Take `Cc1cc(I)ccc1Nc1c(C(=O)NOCCC(O)CO)cc(Br)c(F)c1F` (stereo not drawn) [Example 97, 5-Bromo-N-(3,4-dihydroxy-butoxy)-3,4-difluoro-2-(4-iodo-2-methyl-phenylamino)-benzamide]: the “% Inhibition @ 0.1 μM” value came to 30.1% and the “% Inhibition @ 1 μM” value is 91.9%.

Turning to `O=C(NOCCCO)c1cc(Br)c(F)c(F)c1Nc1ccc(I)cc1Cl` [Example 98, 5-Bromo-2-(2-chloro-4-iodo-phenylamino)-3,4-difluoro-N-(3-hydroxy-propoxy)-benzamide], the IC50 stood at 0.011 µM. This counts as double-digit nanomolar.

For `O=C(NOCCCO)c1ccc(F)c(F)c1Nc1ccc(I)cc1Cl` [Example 99, 2-(2-Chloro-4-iodo-phenylamino)-3,4-difluoro-N-(3-hydroxy-propoxy)-benzamide], the IC50 came to 0.018 µM.

`Cc1cc(I)ccc1Nc1c(C(=O)NOCCCO)cc(F)c(F)c1F` [Example 100, 3,4,5-Trifluoro-N-(3-hydroxy-propoxy)-2-(4-iodo-2-methyl-phenylamino)-benzamide] had a 50% inhibitory concentration (IC50) of 0.058 µM.

As to `O=C(NOCCCO)c1cc(F)c(F)c(F)c1Nc1ccc(I)cc1Cl` [Example 101, 2-(2-Chloro-4-iodo-phenylamino)-3,4,5-trifluoro-N-(3-hydroxy-propoxy)-benzamide], the midpoint of inhibition, the IC50, lay at 0.225 µM.

Molecule `Cc1cc(I)ccc1Nc1c(C(=O)NOCCCO)cc(Br)c(F)c1F` [Example 102, 5-Bromo-3,4-difluoro-N-(3-hydroxy-propoxy)-2-(4-iodo-2-methyl-phenylamino)-benzamide] came in with a concentration for half-maximal inhibition (IC50) of 0.275 µM.

The molecule `Cc1cc(I)ccc1Nc1c(C(=O)NOCCCO)ccc(F)c1F` [Example 103, 3,4-Difluoro-N-(3-hydroxy-propoxy)-2-(4-iodo-2-methyl-phenylamino)-benzamide] returned a concentration for half-maximal inhibition (IC50) of 0.487 µM.

`CCC(O)CONC(=O)c1ccc(F)c(F)c1Nc1ccc(I)cc1Cl` (stereo not drawn) [Example 104, 2-(2-Chloro-4-iodo-phenylamino)-3,4-difluoro-N-(2-hydroxy-butoxy)-benzamide] had an IC50 of 0.024 µM. This IC50 lies about 20-fold lower than the previous one.

Turning to `CCC(O)CONC(=O)c1cc(F)c(F)c(F)c1Nc1ccc(I)cc1Cl` (stereo not drawn) [Example 105, 2-(2-Chloro-4-iodo-phenylamino)-3,4,5-trifluoro-N-(2-hydroxy-butoxy)-benzamide], the “% Inhibition @ 0.1 μM” value stood at 3.3% and the “% Inhibition @ 1 μM” value was determined as 71.3%.

Consider `CCC(O)CONC(=O)c1cc(F)c(F)c(F)c1Nc1ccc(I)cc1C` (stereo not drawn) [Example 106, 3,4,5-Trifluoro-N-(2-hydroxy-butoxy)-2-(4-iodo-2-methyl-phenylamino)-benzamide], for which the “% Inhibition @ 0.1 μM” value was found to be 13.2% and the “% Inhibition @ 1 μM” value was 81.6%.

For `CCC(O)CONC(=O)c1cc(Br)c(F)c(F)c1Nc1ccc(I)cc1Cl` (stereo not drawn) [Example 107, 5-Bromo-2-(2-chloro-4-iodo-phenylamino)-3,4-difluoro-N-(2-hydroxy-butoxy)-benzamide], the IC50 was 0.076 µM.

Consider `CCC(O)CONC(=O)c1cc(Br)c(F)c(F)c1Nc1ccc(I)cc1C` (stereo not drawn) [Example 108, 5-Bromo-3,4-difluoro-N-(2-hydroxy-butoxy)-2-(4-iodo-2-methyl-phenylamino)-benzamide], for which the “% Inhibition @ 0.1 μM” value is recorded as 74% and the “% Inhibition @ 1 μM” value is on record as 94.6%.

For the molecule `CCC(O)CONC(=O)c1ccc(F)c(F)c1Nc1ccc(I)cc1C` (stereo not drawn) [Example 109, 3,4-Difluoro-N-(2-hydroxy-butoxy)-2-(4-iodo-2-methyl-phenylamino)-benzamide], the IC50 was 0.038 µM.

Turning to `CCC(O)CONC(=O)c1cc(Cl)c(F)c(F)c1Nc1ccc(I)cc1C` (stereo not drawn) [Example 111, 5-Chloro-3,4-difluoro-N-(2-hydroxy-butoxy)-2-(4-iodo-2-methyl-phenylamino)-benzamide], the “% Inhibition @ 0.1 μM” value is 78% and the “% Inhibition @ 1 μM” value came out at 93.4%.
